Results taken from patent US5035877A, “Non-ionic contrast media from ionic contrast media” (Cook Imaging Corporation, priority 1990, dated 1991).

How the values were obtained:
[1] = system: Mice (CD-1); assay: Estimated i.v. LD50, mice (systemic toxicity); format: in vivo; settings: 300 mg I/ml, 37° C., injection rate 1 ml/min
Description: (§1) Compounds VIII and XVI were tested from stability, solubility, osmolality, viscosity and systemic toxicity.
(§2) *All at 300 mg I/ml concentration and 37° C. Injection rates 1
(§3) ml/min in mice and 5 ml/min in rats.
(§4) °Ref. Salvesen, S. in Acta Radiol. Suppl. 362, p. 73, 1980

[2] = Stability; format: physicochemical; settings: compared with existing compounds
Description: as §1

[3] = Osmolality; format: physicochemical; settings: for osmolality (in words): compared with existing compounds
Description: as §1, §2

[4] = Solubility; format: physicochemical; settings: compared with existing compounds
Description: as §1

[5] = Viscosity; format: physicochemical; settings: for viscosity (in words): compared with existing compounds
Description: as §1, §2

[6] = Systemic toxicity (conventional tests, in words); format: in vivo; settings: compared with existing compounds
Description: as §1

[7] = system: Rats (Lewis); assay: Estimated i.v. LD50, rats (systemic toxicity); format: in vivo; settings: 300 mg I/ml, 37° C., injection rate 5 ml/min
Description: as §1, §2, §3, §4

[8] = must be dispensed lyophilized and reconstituted prior to use; cited from earlier work

Q: Which “Estimated i.v. LD50” value [1] does the source give for `CNC(=O)c1c(I)c(C(=O)N[C@@H](CO)[C@H](O)CO)c(I)c(N(CC(O)CO)C(C)=O)c1I` (relative stereo) [XVI, 5-(N-2,3-Dihydroxypropylacetamido)-2,4,6-triiodo-N-methyl-N'-(1,3,4-trihydroxy-erythro-but-2-yl) isophthalamide] here?
A: The value was 12-13 gI/kg.

Q: What about the “stability (in words)” value [2] of the same molecule?
A: Its value is “comparable properties in the other categories”.

Q: What about the “osmolality (in words)” value [3] of the same molecule?
A: The value was “substantially reduced osmolality”.

Q: And the “solubility (in words)” value [4]?
A: The value was “comparable properties in the other categories”.

Q: What about the “viscosity (in words)” value [5] of the same molecule?
A: Its value is “comparable properties in the other categories”.

Q: And the “systemic toxicity (in words)” value [6]?
A: The value was “comparable properties in the other categories”.

Q: What about the “Estimated i.v. LD50” value [7] of the same molecule?
A: Its value is 13.5-14 gI/kg.

Q: Which results are given for `CC(=O)N(CC(O)CO)c1c(I)c(C(=O)NCC(O)CO)c(I)c(C(=O)NCC(O)CO)c1I` (centres unmarked) [Iohexol]?
A: Estimated i.v. LD50 [1]: 16-17 gI/kg; Estimated i.v. LD50 [7]: 13.5-15 gI/kg

Q: Which “Estimated i.v. LD50” value [1] does the source give for `C[C@H](O)C(=O)Nc1c(I)c(C(=O)NC(CO)CO)c(I)c(C(=O)NC(CO)CO)c1I` [Iopamidol] here?
A: Its value is 17-18 gI/kg.

Q: What about the “Estimated i.v. LD50” value [7] of the same molecule?
A: Its value is 12.2-13 gI/kg.

Q: Which results are given for `COCC(=O)Nc1c(I)c(C(=O)NCC(O)CO)c(I)c(C(=O)N(C)CC(O)CO)c1I` (centres unmarked) [Iopromide]?
A: Estimated i.v. LD50 [1]: 11.5-13.0 gI/kg; Estimated i.v. LD50 [7]: 10-11.5 gI/kg

Q: With `CC(=O)Nc1c(I)c(C(=O)N[C@H]2C(O)O[C@H](CO)[C@@H](O)[C@@H]2O)c(I)c(N(C)C(C)=O)c1I` (some centres unmarked) [Metrizamide] as the molecule, how does the “hydrolytic stability (in words)” value [8] read?
A: Its value is “hydrolytic instability”.

Q: Which “Estimated i.v. LD50” value [1] does the source give for `CC(=O)N(CC(O)CO)c1c(I)c(C(=O)NCCO)c(I)c(C(=O)NCC(O)CO)c1I` (centres unmarked) [VIII, 5-(N-2,3-dihydroxypropylacetamido)-2,4,6-triiodo-N-(2,3-dihydroxypropyl)-N'-(2-hydroxyethyl)-isophthalamide] here?
A: The value was 16-17 gI/kg.

Q: What about the “stability (in words)” value [2] of the same molecule?
A: The value was “comparable properties in the other categories”.

Q: What about the Osmolality ([3]; 300 mg I/ml, 37° C.) of the same molecule?
A: Its Osmolality is 560 mOsm/kg.

Q: And the “osmolality (in words)” value [3]?
A: Its value is “substantially reduced osmolality”.

Q: And the “solubility (in words)” value [4]?
A: The value was “comparable properties in the other categories”.

Q: And the Viscosity ([5]; 300 mg I/ml, 37° C.)?
A: The Viscosity was 5.3 cps.

Q: What about the “viscosity (in words)” value [5] of the same molecule?
A: The value was “comparable properties in the other categories”.

Q: And the “systemic toxicity (in words)” value [6]?
A: The value was “comparable properties in the other categories”.

Q: What about the “Estimated i.v. LD50” value [7] of the same molecule?
A: The value was 14-16.5 gI/kg.
